# Test system: HT-1080 cells
# Experiment: HT-1080 cell viability assay (ferroptosis induced by RSL3, Cell Titer-Glo)
# Assay type: cell-based
# Settings: Homo sapiens, HT-1080, 20 h, ferroptosis inducer RSL3, 20 hours, ferroptosis inhibitory activity, Table 2
# Summary of the method: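 Cells seeded overnight, then co-treated with RSL3 and compound (3-fold, 10-point dilution, top 1.1 μM) for 20 hours. Viability by CellTiter-Glo luminescence, normalized to untreated controls; EC50 from sigmoidal non-linear regression.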
row,EC50 [nM],Structure (SMILES)
1,100 to 1000,"CC(C)(C)c1ccc(N[C@H]2CC[C@@H](N)CC2)cc1 [Compound 198, (1s,4s)-N1-(4-(tert-butyl)phenyl)cyclohexane-1,4-diamine]"
2,0.1 to 100,"CC(C)Nc1ccc(N2CCC(C(F)(F)F)CC2)cc1 [Compound 7, N-isopropyl-4-(4-(trifluoromethyl)piperidin-1-yl)aniline]"
3,0.1 to 100,"NC[C@@H]1CCC(Nc2ccc(N3CCC(C(F)(F)F)CC3)cc2)[C@@H](N)C1 (stereo partly drawn) [Compound 503, (2S, 4R)-4-(aminomethyl)-N1-(4-(4-(trifluoromethyl)piperidin-1-yl)phenyl)cyclohexane-1,2-dia mine bis(2,2,2-trifluoroacetate)]"
4,100 to 1000,"CC1(C)CCC(c2ccc(NC3CCC(CN)CC3)cn2)CC1 (centres unmarked) [Compound 167, N-(4-(aminomethyl)cyclohexyl)-6-(4,4-dimethylcyclohexyl)pyridin-3-amine]"
5,0.1 to 100,"CC1CN(c2ccc(NC3C[C@H]4CC(N)C[C@H]4C3)cc2F)CC(C)O1 (stereo partly drawn) [Compound 460, (3aR, 6aS)-N2-(4-(2,6-dimethylmorpholino)-3-fluorophenyl) octahydropentalene-2,5-diamine]"
6,0.1 to 100,"Cc1nc(N2CCC(C(F)(F)F)CC2)ccc1NC1CCC(CN)CC1 (centres unmarked) [Compound 25, N-(4-(aminomethyl)cyclohexyl)-2-methyl-6-(4-(trifluoromethyl)piperidin-1-yl)pyridin-3-amine]"
7,100 to 1000,"Cc1ccc(NC2CCC(N)CC2)cc1C (centres unmarked) [Compound 240, N1-(3,4-dimethylphenyl)cyclohexane-1,4-diamine]"
8,0.1 to 100,"CC(C)C1CCN(c2ncc(NC3CCC(N)C3)cn2)CC1 (centres unmarked) [Compound 38, N1-(2-(4-isopropylpiperidin-1-yl)pyrimidin-5-yl)cyclopentane-1,3-diamine]"
9,100 to 1000,"CC(C)(C)c1cccc(NC2CCC(N)CC2)c1 (single isomer, unassigned) [Compound 153A, N1-(3-(tert-butyl)phenyl)cyclohexane-1,4-diamine]"
10,0.1 to 100,"NC1CCC(Nc2ccc(N3CCC(C(F)(F)F)CC3)cc2)CC1 (centres unmarked) [Compound 40, N1-(4-(4-(trifluoromethyl)piperidin-1-yl)phenyl)cyclohexane-1,4-diamine]"
11,100 to 1000,"CC1CN(c2ccc(NC3CCCCC3N)cc2)CC(C)O1 (centres unmarked) [Compound 440, N1-(4-(2,6-dimethylmorpholino)phenyl)cyclohexane-1,2-diamine]"
12,0.1 to 100,"CN(C)CC1CCC(Nc2ccc(C3CCC(C)(C)CC3)cc2)CC1 (single isomer, unassigned) [Compound 97A, N-(4-((dimethylamino)methyl)cyclohexyl)-4-(4,4-dimethylcyclohexyl)aniline]"
13,100 to 1000,"Cc1nc(N2CC(C)OC(C)C2)ccc1NC1CCC(N)CC1 (centres unmarked) [Compound 443, N1-(6-(2,6-dimethylmorpholino)-2-methylpyridin-3-yl)cyclohexane-1,4-diamine]"
14,0.1 to 100,"NC1CC2(C1)CC(Nc1cnc(N3CCC(C(F)(F)F)CC3)nc1)C2 (centres unmarked) [Compound 359, N2-(2-(4-(trifluoromethyl)piperidin-1-yl)pyrimidin-5-yl)spiro[3.3]heptane-2,6-diamine]"
15,100 to 1000,"CC1(C)CCC(c2ccc(NC3CCC(NC(N)=O)CC3)cc2)CC1 (centres unmarked) [Compound 248, 1-(4-((4-(4,4-dimethylcyclohexyl)phenyl)amino)cyclohexyl)urea]"
16,0.1 to 100,"C[C@@H]1CN(c2ccc3cc(NC4CC5(CC(N)C5)C4)ccc3n2)C[C@H](C)O1 (stereo partly drawn) [Compound 565, N2-(2-((2S,6R)-2,6-dimethylmorpholino)quinolin-6-yl)spiro[3.3]heptane-2,6-diamine]"
17,0.1 to 100,"CC1(C)CCC(c2ccc(NC3CC(N)C3)cc2)CC1 (centres unmarked) [Compound 94, N1-(4-(4,4-dimethylcyclohexyl)phenyl)cyclobutane-1,3-diamine]"
18,0.1 to 100,"CC(C)(C)c1ccc(NC2CCC(CN)CC2)cc1 (centres unmarked) [Compound 96, N-(4-(aminomethyl)cyclohexyl)-4-(tert-butyl)aniline]"
19,0.1 to 100,"NC1CCC(Nc2cnc(N3CCC(C(F)(F)F)CC3)cn2)CC1 (centres unmarked) [Compound 52, N1-(5-(4-(trifluoromethyl)piperidin-1-yl)pyrazin-2-yl)cyclohexane-1,4-diamine]"
20,1000 to 10000,"NC1CCC(Nc2ncc(N3CCC(C(F)(F)F)CC3)cn2)CC1 (single isomer, unassigned) [Compound 64A]"
21,100 to 1000,"CC1CN(c2ccc(NC3CC4(CC(N)C4)C3)cc2F)CC(C)O1 (centres unmarked) [Compound 457, N2-(4-(2,6-dimethylmorpholino)-3-fluorophenyl)spiro[3.3]heptane-2,6-diamine]"
22,1000 to 10000,"NC1CCC(Nc2ccc(F)c(F)c2)CC1 (centres unmarked) [Compound 160, N1-(3,4-difluorophenyl)cyclohexane-1,4-diamine]"

# Further lines, the compound ahead of its results:
row,Structure (SMILES),EC50 [nM]
1,"CC(C)C1CCN(c2ncc(NC3C4CC5CC3CC(NC(N)=O)(C5)C4)cn2)CC1 (centres unmarked) [Compound 408, 1-(4-((2-(4-isopropylpiperidin-1-yl)pyrimidin-5-yl)amino)adamantan-1-yl)urea]",0.1 to 100
2,"Cc1nc(N2CC(C)OC(C)C2)ccc1NCCC1CCC(N)C1 (centres unmarked) [Compound 490, N-(2-(3-aminocyclopentyl)ethyl)-6-(2,6-dimethylmorpholino)-2-methylpyridin-3-amine]",0.1 to 100
3,"CC(C)(C)c1ccc(NC2CC3CC(N)CC3C2)cc1 (centres unmarked) [Compound 277, N2-(4-(tert-butyl)phenyl) octahydropentalene-2,5-diamine]",0.1 to 100
4,"Cc1c(NC[C@H]2CC[C@H](N)CC2)ccc(N2CC(C)OC(C)C2)c1F (some centres unmarked) [Compound 433, N-(((1r,4r)-4-aminocyclohexyl)methyl)-4-(2,6-dimethylmorpholino)-3-fluoro-2-methylaniline]",0.1 to 100
5,"CC1(C)CCN(CCNc2ccc(C(C)(C)C)cc2)CC1 [Compound 246, 4-(tert-butyl)-N-(2-(4,4-dimethylpiperidin-1-yl)ethyl)aniline]",100 to 1000
6,"COc1cc(N2C[C@@H](C)O[C@@H](C)C2)ncc1NC1CC2(CC(N)C2)C1 (stereo partly drawn) [Compound 501, N^2-(6-((2R,6S)-2,6-dimethylmorpholino)-4-methoxypyridin-3-yl)spiro[3.3]heptane-2,6-diamine]",1000 to 10000
7,"CC1(C)CCC(c2ccc(NCCNC(=O)[C@H]3CNC(=O)N3)cc2)CC1 [Compound 158, (R)—N-(2-((4-(4,4-dimethylcyclohexyl)phenyl)amino)ethyl)-2-oxoimidazolidine-4-carboxamide]",100 to 1000
8,"Cc1nc(N2CCOCC2)ccc1NC1C2CC3CC1CC(CN)(C3)C2 (centres unmarked) [Compound 538A, N-((2r,5s)-5-(aminomethyl)adamantan-2-yl)-2-methyl-6-morpholinopyridin-3-amine]",0.1 to 100
9,"Cc1nc(N2CC(C)OC(C)(C)C2)ccc1NC1CC2(CC(N)C2)C1 (centres unmarked) [Compound 185, N2-(2-methyl-6-(2,2,6-trimethylmorpholino)pyridin-3-yl)spiro[3.3]heptane-2,6-diamine]",1000 to 10000
10,"CCc1nc(N2C[C@@H](C)O[C@@H](C)C2)ccc1NC1CC2(CC(N)C2)C1 (stereo partly drawn) [Compound 545, N^2-(6-((2S,6R)-2,6-dimethylmorpholino)-2-ethylpyridin-3-yl)spiro[3.3]heptane-2,6-diamine]",0.1 to 100
11,"CC(C)(C)c1ccc(NCCN2CCCC2)cc1 [Compound 202, 2-(pyrrolidin-1-yl) acetaldehyde--4-(tert-butyl)-N-(2-(pyrrolidin-1-yl)ethyl)aniline-4-(tert-butyl)aniline]",1000 to 10000
12,"Cc1cc(N2CC(C)OC(C)C2)ccc1NC1CC2(CC(N)C2)C1 (centres unmarked) [Compound 463, N2-(4-(2,6-dimethylmorpholino)-2-methylphenyl)spiro[3.3]heptane-2,6-diamine]",0.1 to 100
13,"Cc1nc(N2CC[C@H]3OCCC[C@@H]3C2)ccc1NC1CC2(CC(N)C2)C1 (stereo partly drawn) [Compound 508, N2-(6-((4aR,8aR)-hexahydro-2H-pyrano [3,2-c]pyridin-6 (5H)-yl)-2-methylpyridin-3-yl)spiro[3. 3]heptane-2,6-diamine]",0.1 to 100
14,"CC1(N)CCC(Nc2ccc(C(C)(C)C)cc2)CC1 (single isomer, unassigned) [Compound 231A, N1-(4-(tert-butyl)phenyl)-4-methylcyclohexane-1,4-diamine]",0.1 to 100

# Same assay, conditions: Homo sapiens, HT-1080, 20 h, ferroptosis inducer RSL3, 20 hours, ferroptosis inhibitory activity, Table 3
row,Structure (SMILES),EC50 [nM]
1,CC1CN(c2ccc3cc(NC4CC5(CC(N)C5)C4)ccc3c2)CCO1 (centres unmarked) [Compound 648],0.1 to 100
2,"Cc1cc(N2CC[Si](C)(C)CC2)ccc1NC1CC2(CC(N)C2)C1 (centres unmarked) [Compound 634, N2-(4-(4.4-dimethyl-1,4-azasilinan-1-yl)-2-methylphenyl)spiro[3.3]heptane-2,6-diamine]",0.1 to 100
3,"Cc1nc(N2C3CCC2CC3)ccc1NC1CC2(CC(N)C2)C1 (centres unmarked) [Compound 587, N2-(6-(7-azabicyclo[2.2.1]heptan-7-yl)-2-methylpyridin-3-yl)spiro[3.3]heptane-2,6-diamine]",100 to 1000
4,"NC(=O)N1CCC(Nc2ccc3cc(N4CCC(C(F)(F)F)CC4)ccc3c2)CC1 [Compound 633, 4-((6-(4-(trifluoromethyl)piperidin-1-yl)naphthalen-2-yl)amino)piperidine-1-carboxamide]",0.1 to 100

# Same assay, conditions: Homo sapiens, ferroptosis inducer RSL3, 20 hours, ferroptosis inhibitory activity, Table 2
row,Structure (SMILES),EC50 [nM]
1,"CN1CCC(N2CCC(Nc3ccc(C4CCC(C)(C)CC4)cc3)CC2)CC1 [Compound 100, N-(4-(4,4-dimethylcyclohexyl)phenyl)-1′-methyl-[1,4′-bipiperidin]-4-amine]",100 to 1000
2,"CC(C)(C)c1ccc(NCCC2CCC(N)CC2)cc1 (centres unmarked) [Compound 336A, N-(2-(4-aminocyclohexyl)ethyl)-4-(tert-butyl)aniline]",0.1 to 100

# Same assay, conditions: ferroptosis inducer RSL3, 20 hours, ferroptosis inhibitory activity, Table 2
row,EC50 [nM],Structure (SMILES)
1,0.1 to 100,"CC(C)(C)c1ccc(NCC2CC(N)C2)cc1 (single isomer, unassigned) [Compound 335B, N-((3-aminocyclobutyl)methyl)-4-(tert-butyl)aniline]"
2,100 to 1000,"CC1(C)CCC(c2ccc(NC3CCC(C(N)=O)CC3)cc2)CC1 (single isomer, unassigned) [Compound 159B, 4-((4-(4,4-dimethylcyclohexyl)phenyl)amino)cyclohexane-1-carboxamide]"

# — patent US20240360114A1 (SIRONAX LTD., priority 2021, published 2024)
